Test results reported in paper PMC8175350, “Drug repurposing screens identify chemical entities for the development of COVID-19 interventions” (Nature Communications, 2021).
Where “and” joins values, the source holds several entries; their conditions need not be identical. Equal values may be shown once. Where a name gives a salt, the structure may show the parent alone. Read-outs that look alike come from different tables or passages of the source.

Tests used:
SARS-CoV-2 [1] = type: cell-based
SARS-CoV-2 [2] = assay: microbe, parasite or virus in culture; type: cell-based; conditions: for EC50: Severe acute respiratory syndrome coronavirus 2, HeLa-ACE2, read-out: HeLa-ACE2 CoV-2 EC50 GeoMean; for Emax: Severe acute respiratory syndrome coronavirus 2, HeLa-ACE2, 24 h, curve-fit effect at infinite concentration, average, read-out: HeLa-ACE2 CoV-2 Sinf Average
in vitro = conditions: human
HeLa-ACE2 cells [3] = assay: cells; conditions: Homo sapiens; for Emax: HeLa-ACE2, 24 h, read-out: HeLa-ACE2 cell count Sinf Average
SARS-CoV-2 [4] = assay: microbe, parasite or virus in culture; type: cell-based; conditions: for Emax: Severe acute respiratory syndrome coronavirus 2, Calu-3, 48 h; for EC50: read-out: Calu-3 CoV-2 EC50 GeoMean
HeLa-ACE2 cells [5] = assay: Uninfected HeLa-ACE2 24 h live/dead cytotoxicity counter screen; type: cell-based, human; conditions: for HeLa-ACE2 uninfected cytotoxicity Sinf Average (%): Sinf average of the curves; for HeLa-ACE2 uninfected cytotoxicity Sinf Average: curve-fit effect at infinite concentration
[6] = as above; type: cell-based, human; conditions: human, uninfected HeLa-ACE2 cells
Calu-3 cells [7] = assay: cells; conditions: Homo sapiens; for Emax: Calu-3, 48 h
Calu-3 cells [8] = assay: Uninfected Calu-3 48 h Cell-Titer Glo cytotoxicity counter screen; conditions: for Calu-3 uninfected cytotoxicity Sinf Average (%): Sinf average of the curves; for Calu-3 uninfected cytotoxicity Sinf Average: curve-fit effect at infinite concentration
[9] = as above; conditions: human, uninfected Calu-3 cells, Calu-3 uninfected cytotoxicity CC50 GeoMean, unrounded geometric mean
Calu-3 cells [10] = conditions: for Calu-3 uninfected cytotoxicity Sinf Average (%): human, 48 h
[11] = Calu-3 uninfected cytotoxicity CC50 GeoMean (µM), geometric mean of replicates
[12] = HeLa-ACE2, read-out: HeLa-ACE2 cell count EC50 GeoMean (µM), geometric mean of replicates
[13] = Sinf average of the curves, read-out: Calu-3 CoV-2 Sinf Average (%)
[14] = Severe acute respiratory syndrome coronavirus 2, Calu-3, geometric mean of replicates
[15] = geometric mean of replicates, read-out: HeLa-ACE2 uninfected cytotoxicity CC50 GeoMean
[16] = read-out: Calu-3 cell count Sinf Average (%)
[17] = Calu-3, read-out: Calu-3 cell count EC50 GeoMean (µM), geometric mean of replicates
[18] = Calu-3 uninfected cytotoxicity CC50 GeoMean, unrounded geometric mean
[19] = HeLa-ACE2, read-out: HeLa-ACE2 cell count EC50 GeoMean, unrounded geometric mean
[20] = curve-fit effect at infinite concentration, average, read-out: Calu-3 CoV-2 Sinf Average
[21] = Severe acute respiratory syndrome coronavirus 2, Calu-3, unrounded geometric mean
[22] = uninfected cells, Fig. 2b group, read-out: HeLa-ACE2 CC50
[23] = unrounded geometric mean, read-out: HeLa-ACE2 uninfected cytotoxicity CC50 GeoMean
[24] = read-out: Calu-3 cell count Sinf Average
[25] = Calu-3, read-out: Calu-3 cell count EC50 GeoMean, unrounded geometric mean
[26] = Calu-3 uninfected cytotoxicity CC50 GeoMean (µM)

Molecule	EC50 (SARS-CoV-2 [2]; geometric mean of replicates) [µM]	EC50 (HeLa-ACE2 cells [3]; [12]) [µM]	Emax (SARS-CoV-2 [4]; [13]) [%]	EC50 (SARS-CoV-2 [4]; [14]) [µM]	CC50 at 24 h [6, 15] [µM]	Emax (Calu-3 cells [7]; [16]) [%]	EC50 (Calu-3 cells [7]; [17]) [µM]	Emax (SARS-CoV-2 [2]) [%]	EC50 (SARS-CoV-2 [2]; unrounded geometric mean) [µM]	CC50 (in vitro; [18]) [µM]	Emax (HeLa-ACE2 cells [3]) [%]	EC50 (HeLa-ACE2 cells [3]; [19]) [µM]	Emax (SARS-CoV-2 [4]; [20]) [%]	EC50 (SARS-CoV-2 [4]; [21]) [µM]	HeLa-ACE2 uninfected cytotoxicity Sinf Average (HeLa-ACE2 cells [5]) [%]	CC50 at 24 h [6, 22] [µM]	CC50 at 24 h [6, 23] [µM]	Emax (Calu-3 cells [7]; [24]) [%]	EC50 (Calu-3 cells [7]; [25]) [µM]	Calu-3 uninfected cytotoxicity Sinf Average (Calu-3 cells [8]) [%]	other results
Nc1nc(N)c2nc(CCc3ccc(C(=O)N[C@@H](CCC(=O)O)C(=O)O)cc3)cnc2n1 [10-deazaaminopterin]																					interaction with remdesivir (SARS-CoV-2 [1]; ZIP model): synergistic (synergistic effect: δ >10); dose-response point, normalized infected cells (SARS-CoV-2 [1]; alone, Concentration [uM] -9.01818): 8.312 and 15.4845 and 9.998; maximal efficacy (SARS-CoV-2 [1]; compound alone): 40%; maximal efficacy (SARS-CoV-2 [1]; with EC2 of remdesivir): ~65%; maximal efficacy (SARS-CoV-2 [1]; with EC24 of remdesivir): > 80%
CCOc1ccc(Cc2nc3cc(N(C)S(=O)(=O)c4cccs4)ccc3n2CC2CCCCC2)nc1 [AZ-11713908]	> 9.59	> 9.59	93	3.53	> 33	100	> 9.73														CC50 (in vitro; [11]): > 29.9 µM; HeLa-ACE2 uninfected cytotoxicity Sinf Average (%) (HeLa-ACE2 cells [5]): -100%; Calu-3 uninfected cytotoxicity Sinf Average (%) (Calu-3 cells [8]): -95%
COC(=O)[C@@]12OC[C@]34[C@H]([C@@H](O)[C@@H]1O)[C@@]1(C)CC(=O)C(O)=C(C)[C@@H]1C[C@H]3OC(=O)[C@H](OC(=O)/C=C(\C)C(C)C)[C@@H]24 [Bruceantin]								98	0.00578	0.973	99	0.0968	99	0.0194	-100	≤ 3	< 0.117	-100	> 6.92	-53	
CC[C@H]1CN2CCc3cc(OC)c(OC)cc3[C@@H]2C[C@@H]1C[C@H]1NCCc2cc(O)c(OC)cc21 [Cephaeline]								99	0.0168	> 4.96	107	0.309	96	0.142	-100	≤ 3	0.212	100	> 6.92	-68	
COCc1c(C(C)C)nc(C(C)C)c(/C=C/[C@@H](O)C[C@@H](O)CC(=O)O)c1-c1ccc(F)cc1 [Cerivastatin sodium]									> 9.59		100	> 9.59	63	0.348	-74	≤ 3	0.308	89	0.936	-100	CC50 at 48 h [9]: > 29.9 µM
CO[C@H]1C[C@H](O[C@H]2CC[C@]3(C=O)[C@H]4CC[C@]5(C)[C@@H](C6=CC(=O)OC6)CC[C@]5(O)[C@@H]4CC[C@]3(O)C2)O[C@H](C)[C@H]1O [Cymarine]								93	0.237	> 5.87	100	0.311	87	0.135	-95	≤ 3	0.287	-100	> 9.98	-40	
O=C(Nc1ccc(Cl)c(S(=O)(=O)N2CCNCC2)c1O)Nc1cccc(F)c1Cl [Elubrixin tosylate]	> 9.59	> 9.59	100	6.91	> 39.8	67	> 9.98														CC50 at 48 h (in vitro; [11]): > 29.6 µM; HeLa-ACE2 uninfected cytotoxicity Sinf Average (%) (HeLa-ACE2 cells [5]): -100%; Calu-3 uninfected cytotoxicity Sinf Average (%) (Calu-3 cells [8]): -100%
CC(=O)O[C@H]1C[C@H](O[C@H]2[C@@H](O)C[C@H](O[C@H]3[C@@H](O)C[C@H](O[C@H]4CC[C@@]5(C)[C@H](CC[C@@H]6[C@@H]5C[C@@H](O)[C@]5(C)[C@@H](C7=CC(=O)OC7)CC[C@]65O)C4)O[C@@H]3C)O[C@@H]2C)O[C@H](C)[C@H]1O[C@@H]1O[C@H](CO)[C@@H](O)[C@H](O)[C@H]1O [Lanatoside C]								97	0.206	> 6.21	96	0.379	86	0.194	-101	≤ 3	1.35	-33	> 9.98	-28	
O[C@@H]1CO[C@H]2[C@@H]1OC[C@H]2Oc1nc2nc(-c3ccc(-c4ccccc4)cc3)c(Cl)cc2[nH]1 [MK-8722]	> 9.59	> 9.59	100	2.73	> 37.4	100	> 5.66														CC50 at 48 h (in vitro; [26]): > 29.9 µM; HeLa-ACE2 uninfected cytotoxicity Sinf Average (%) (HeLa-ACE2 cells [5]): -100%; uninfected Calu-3 CC50 [μM] (Calu-3 cells [10]): > 29.867 ×÷ 1 (n=3) μM; Calu-3 uninfected cytotoxicity Sinf Average (%) (Calu-3 cells [10]): -95%
CC[C@@H]1/C=C/C=C/C[C@H](C)[C@@H](O)[C@](C)(O)C(=O)[C@H](C)[C@@H](O)[C@H](C)C(=O)[C@H](C)[C@@H](O)[C@H](C)/C=C/C(=O)O[C@H]2[C@@H](C)[C@@H](CC1)O[C@]1(O[C@H](C[C@H](C)O)[C@H](C)CC1=O)[C@@H]2C [Oligomycin B]									> 9.59	> 24.5	100	> 8.16	93	< 0.00539	-100		22	50	> 0.311	-89	
CCCCCCCCCCCCCC(=O)O[C@@H]1[C@@H](C)[C@@]2(O)[C@@H](C=C(CO)C[C@]3(O)C(=O)C(C)=C[C@@H]23)[C@@H]2C(C)(C)[C@]12OC(C)=O [Phorbol 12-myristate 13-acetate]								40		22.5		> 9.59	59	0.0162	-58	≤ 3	> 0.201	100	> 9.98	-100	
CC(C)(C)c1ccc(CSc2cnn(C(C)(C)C)c(=O)c2Cl)cc1 [Pyridaben]	> 9.59	> 9.59	93	0.205	> 39.8	47	0.345														CC50 (in vitro; [11]): > 8.99 µM; Calu-3 uninfected cytotoxicity Sinf Average (%) (Calu-3 cells [8]): -94%
C=C(C)[C@]12C[C@@H](C)[C@@]34O[C@](Cc5ccccc5)(O[C@@H]1[C@@H]3C=C(COC(=O)Cc1ccc(O)c(OC)c1)C[C@]1(O)C(=O)C(C)=C[C@@H]41)O2 [Resiniferatoxin]								75	> 1.3	17.3	100	> 8.34	80	0.903	-100		7.17	75	> 2.87	-100	
O=c1[nH]ccc2cc(OC3CCNCC3)ccc12 [SAR-407899]	> 9.59	> 9.59	54	> 3.85	> 38.7	97	2.72														CC50 at 48 h (in vitro; [26]): > 29.9 µM; HeLa-ACE2 uninfected cytotoxicity Sinf Average (%) (HeLa-ACE2 cells [5]): -100%; uninfected Calu-3 CC50 [μM] (Calu-3 cells [10]): > 29.867 ×÷ 1 (n=3) μM; Calu-3 uninfected cytotoxicity Sinf Average (%) (Calu-3 cells [10]): 0%
Cn1c(C#N)ccc1-c1ccc2c(c1)C(C)(C)OC(=S)N2 [Tanaproget]								49	0.141		100	> 9.59	87	2.44	-50	≤ 3	0.128	98	> 9.98	-100	CC50 at 48 h (in vitro; Calu-3 uninfected cytotoxicity CC50 GeoMean): > 19.3 µM; uninfected Calu-3 CC50 (Calu-3 cells [10]): > 19.278 ×÷ 2.07 (n=3) μM
N6-isopentenyladenosine [Riboprine]																					interaction with remdesivir (SARS-CoV-2 [1]): synergistic (key: additive: Additive effect: -10< δ <10; synergistic effect: δ >10; antagonistic eff ect: δ <10); maximal efficacy (SARS-CoV-2 [1]): 100%
